From PubChem BioAssay AID288 (DTP/NCI, 2004)
“And” between values parts separate entries of the source, which are not always exact repeats. Identical values can stand only once. Records with an inconclusive call do not appear. Numbered stars: 1 amine (or outer) side, 2 acyl side, 3 side chain; on linkers, the order of the positions; unused ones are H or OH. Bridge positions count the residues as written; N and C are the ends. Square brackets hold non-standard residues; d marks the D form. Peptide text beside a SMILES is read from it. I, II: the chains in the order shown. * marks the point of attachment. ξ: configuration not given here. Quinaldoyl(3-OH,6-OMe) = COc1ccc2nc(C(=O)*)c(O)cc2c1; X1 = CCC(=O)OC1CC=NN([*:1])C1C(=O)[*:2]; X2 = CC(=O)OC1CC=NN([*:1])C1C(=O)[*:2]; ξNMeVal(3-OH) = CNC(C(=O)O)C(C)(C)O; Sar = CNCC(=O)O

Test system: BDF1 mice, M5076 sarcoma s.c., survival/tumor T/C
Assay: NCI In Vivo Anticancer Drug Screen. Data for tumor model Sarcoma M5076 (subcutaneous) in B6D2F1 (BDF1) mice
Method: The antitumor activity of compounds was measured in mice bearing transplantable tumors. Survival or tumor size were measured and the results are expressed as the measurement made in the treated group (T) divided by the measurement made in the vehicle treated control group (C). The tumor model used in this assay is Sarcoma M5076 (subcutaneous) in B6D2F1 (BDF1) mice

SMILES: CCC(=O)OC1CC=NN2C(=O)C(NC(=O)c3nc4ccc(OC)cc4cc3O)COC(=O)C(C(C)(C)O)N(C)C(=O)CN(C)C(=O)CNC(=O)C3C(OC(C)=O)CC=NN3C(=O)C(NC(=O)c3nc4ccc(OC)cc4cc3O)COC(=O)C(C(C)(C)O)N(C)C(=O)CN(C)C(=O)CNC(=O)C12 (centres undefined) (I: {Quinaldoyl(3-OH,6-OMe)}-S[X1]G[Sar][ξNMeVal(3-OH)] / II: {Quinaldoyl(3-OH,6-OMe)}-S[X2]G[Sar][ξNMeVal(3-OH)]; ester I:1-II:C, I:C-II:1; configuration not given here)
- T/C (endpoint: median survival time, dose: 18.8 micrograms/kg/injection, schedule: Q01DX009 (ip), vehicle: Klucel (hydroxypropylcellulose) (HPC), higher = longer survival): 89 % of control
- T/C (endpoint: median tumor weight (est.), dose: 18.8 micrograms/kg/injection, schedule: Q01DX009 (ip), vehicle: DMSO, higher = larger tumour): 86 % of control

SMILES: O=[N+]([O-])c1ccc(CSc2ncnc3c2ncn3C2OC(COP(=O)(O)O)C(O)C2O)cc1 (centres undefined)
- T/C (endpoint: median survival time, dose: 64.8 mg/kg/injection, schedule: Q01DX005 (ip), vehicle: saline, higher = longer survival): 115 % of control and 118 % of control

SMILES: CC(=O)O[C@]1(C(C)=O)CC[C@H]2[C@@H]3C[C@H](C)C4=CC(=O)CC[C@]4(C)[C@H]3CC[C@@]21C
- T/C (endpoint: mean tumor weight, dose: 100.0 mg/kg/injection, schedule: Q02DX011 (ip), vehicle: Klucel (hydroxypropylcellulose) (HPC), higher = larger tumour): 44 % of control
- T/C (endpoint: mean tumor weight, dose: 200.0 mg/kg/injection, schedule: Q02DX011 (ip), vehicle: Klucel (hydroxypropylcellulose) (HPC), higher = larger tumour): 122 % of control
- T/C (endpoint: mean tumor weight, dose: 400.0 mg/kg/injection, schedule: Q02DX011 (ip), vehicle: Klucel (hydroxypropylcellulose) (HPC), higher = larger tumour): 74 % of control
- T/C (endpoint: median tumor weight (est.), dose: 100.0 mg/kg/injection, schedule: Q02DX011 (ip), vehicle: Klucel (hydroxypropylcellulose) (HPC), higher = larger tumour): 49 % of control
- T/C (endpoint: median tumor weight (est.), dose: 200.0 mg/kg/injection, schedule: Q02DX011 (ip), vehicle: Klucel (hydroxypropylcellulose) (HPC), higher = larger tumour): 86 % of control
- T/C (endpoint: median tumor weight (est.), dose: 400.0 mg/kg/injection, schedule: Q02DX011 (ip), vehicle: Klucel (hydroxypropylcellulose) (HPC), higher = larger tumour): 59 % of control

SMILES: CN(C)CCCNc1c2ccccc2nc2cccc([N+](=O)[O-])c12
- T/C (endpoint: mean tumor weight, dose: 2.0 micrograms/kg/injection, schedule: Q02DX011 (ip), vehicle: saline, higher = larger tumour): 106 % of control
- T/C (endpoint: mean tumor weight, dose: 4.0 micrograms/kg/injection, schedule: Q02DX011 (ip), vehicle: saline, higher = larger tumour): 70 % of control
- T/C (endpoint: mean tumor weight, dose: 8.0 micrograms/kg/injection, schedule: Q02DX011 (ip), vehicle: saline, higher = larger tumour): 97 % of control
- T/C (endpoint: mean tumor weight, dose: 16.0 micrograms/kg/injection, schedule: Q02DX011 (ip), vehicle: saline, higher = larger tumour): 92 % of control
- T/C (endpoint: mean tumor weight, dose: 32.0 micrograms/kg/injection, schedule: Q02DX011 (ip), vehicle: saline, higher = larger tumour): 88 % of control
- T/C (endpoint: mean tumor weight, dose: 64.0 micrograms/kg/injection, schedule: Q02DX011 (ip), vehicle: saline, higher = larger tumour): 65 % of control
- T/C (endpoint: median tumor weight (est.), dose: 2.0 micrograms/kg/injection, schedule: Q02DX011 (ip), vehicle: saline, higher = larger tumour): 112 % of control
- T/C (endpoint: median tumor weight (est.), dose: 4.0 micrograms/kg/injection, schedule: Q02DX011 (ip), vehicle: saline, higher = larger tumour): 90 % of control
- T/C (endpoint: median tumor weight (est.), dose: 8.0 micrograms/kg/injection, schedule: Q02DX011 (ip), vehicle: saline, higher = larger tumour): 95 % of control
- T/C (endpoint: median tumor weight (est.), dose: 32.0 micrograms/kg/injection, schedule: Q02DX011 (ip), vehicle: saline, higher = larger tumour): 100 % of control
- T/C (endpoint: median tumor weight (est.), dose: 64.0 micrograms/kg/injection, schedule: Q02DX011 (ip), vehicle: saline, higher = larger tumour): 62 % of control

SMILES: CCc1ccc(NC(=O)/C=C\C(=O)O)cc1
- T/C (endpoint: median survival time, dose: 50.0 mg/kg/injection, schedule: Q01DX009 (ip), vehicle: saline with Tween-80, higher = longer survival): 86 % of control
- T/C (endpoint: median survival time, dose: 100.0 mg/kg/injection, schedule: Q01DX009 (ip), vehicle: saline with Tween-80, higher = longer survival): 105 % of control
- T/C (endpoint: median survival time, dose: 200.0 mg/kg/injection, schedule: Q01DX009 (ip), vehicle: saline with Tween-80, higher = longer survival): 91 % of control
- T/C (endpoint: median tumor weight (est.), dose: 50.0 mg/kg/injection, schedule: Q01DX009 (ip), vehicle: saline with Tween-80, higher = larger tumour): 112 % of control
- T/C (endpoint: median tumor weight (est.), dose: 100.0 mg/kg/injection, schedule: Q01DX009 (ip), vehicle: saline with Tween-80, higher = larger tumour): 85 % of control
- T/C (endpoint: median tumor weight (est.), dose: 200.0 mg/kg/injection, schedule: Q01DX009 (ip), vehicle: saline with Tween-80, higher = larger tumour): 106 % of control

SMILES: NC(=O)c1cc(N2CC2)c([N+](=O)[O-])cc1[N+](=O)[O-]
- T/C (endpoint: median survival time, dose: 64.0 mg/kg/injection, schedule: Q01DX001 (ip), vehicle: saline, higher = longer survival): 103 % of control (2×) and 97 % of control
- T/C (endpoint: median survival time, dose: 80.0 mg/kg/injection, schedule: Q01DX001 (ip), vehicle: saline, higher = longer survival): 95 % of control
- T/C (endpoint: median survival time, dose: 100.0 mg/kg/injection, schedule: Q01DX001 (ip), vehicle: saline, higher = longer survival): 106 % of control and 110 % of control and 95 % of control
